# Data from publication PMC7181660, “A novel specific PERK activator reduces toxicity and extends survival in Huntington's disease models” (Scientific Reports, 2020).
# Like-named read-outs stand apart in the source and are kept apart here.
# How the values were obtained:
# Assay in all cases: biochemical
# Type in all cases: biochemical
# panel of 391 kinases [1] = target: panel of 391 kinases (Homo sapiens, UniProt O15146); settings: MUSK, MK-28 1 µM, ATP 1 µM
# panel of 391 kinases [2] = target: panel of 391 kinases (Homo sapiens, UniProt O75582); settings: MSK1/RPS6KA5, MK-28 1 µM, ATP 1 µM
# panel of 391 kinases [3] = target: panel of 391 kinases (Homo sapiens, UniProt O94921); settings: CDK14/cyclin Y (PFTK1), MK-28 1 µM, ATP 1 µM
# panel of 391 kinases [4] = target: panel of 391 kinases (Homo sapiens, UniProt P10721); settings: c-Kit, MK-28 1 µM, ATP 1 µM
# panel of 391 kinases [5] = target: panel of 391 kinases (Homo sapiens, UniProt P11802); settings: MK-28 1 µM, ATP 1 µM; for remaining activity at 1 µM: read-out: % Enzyme Activity (relative to DMSO controls)
# panel of 391 kinases [6] = target: panel of 391 kinases (Homo sapiens, UniProt P15735); settings: PHKg2, MK-28 1 µM, ATP 1 µM
# panel of 391 kinases [7] = target: panel of 391 kinases (Homo sapiens, UniProt P17612); settings: PKA, MK-28 1 µM, ATP 1 µM
# panel of 391 kinases [8] = target: panel of 391 kinases (Homo sapiens, UniProt P22607); settings: FGFR3, MK-28 1 µM, ATP 1 µM
# panel of 391 kinases [9] = target: panel of 391 kinases (Homo sapiens, UniProt P27361); settings: ERK1, MK-28 1 µM, ATP 1 µM
# panel of 391 kinases [10] = target: panel of 391 kinases (Homo sapiens, UniProt P29597); settings: TYK2, MK-28 1 µM, ATP 1 µM
# panel of 391 kinases [11] = target: panel of 391 kinases (Homo sapiens, UniProt P36896); settings: ALK4/ACVR1B, MK-28 1 µM, ATP 1 µM
# panel of 391 kinases [12] = target: panel of 391 kinases (Homo sapiens, UniProt P36897); settings: ALK5/TGFBR1, MK-28 1 µM, ATP 1 µM
# panel of 391 kinases [13] = target: panel of 391 kinases (Homo sapiens, UniProt P45983); settings: JNK1, MK-28 1 µM, ATP 1 µM
# panel of 391 kinases [14] = target: panel of 391 kinases (Homo sapiens, UniProt P48730); settings: CK1d, MK-28 1 µM, ATP 1 µM
# panel of 391 kinases [15] = target: panel of 391 kinases (Homo sapiens, UniProt P49760); settings: CLK2, MK-28 1 µM, ATP 1 µM
# panel of 391 kinases [16] = target: panel of 391 kinases (Homo sapiens, UniProt Q00534); settings: MK-28 1 µM, ATP 1 µM; for remaining activity at 1 µM: read-out: % Enzyme Activity (relative to DMSO controls)
# panel of 391 kinases [17] = target: panel of 391 kinases (Homo sapiens, UniProt Q05655); settings: PKCd, MK-28 1 µM, ATP 1 µM
# panel of 391 kinases [18] = target: panel of 391 kinases (Homo sapiens, UniProt Q13464); settings: ROCK1, MK-28 1 µM, ATP 1 µM
# panel of 391 kinases [19] = target: panel of 391 kinases (Homo sapiens, UniProt Q15139); settings: PKCmu/PRKD1, MK-28 1 µM, ATP 1 µM
# panel of 391 kinases [20] = target: panel of 391 kinases (Homo sapiens, UniProt Q6XUX3); settings: RIPK5, MK-28 1 µM, ATP 1 µM
# panel of 391 kinases [21] = target: panel of 391 kinases (Homo sapiens, UniProt Q8N752); settings: CK1a1L, MK-28 1 µM, ATP 1 µM
# panel of 391 kinases [22] = target: panel of 391 kinases (Homo sapiens, UniProt Q8NG66); settings: NEK11, MK-28 1 µM, ATP 1 µM
# panel of 391 kinases [23] = target: panel of 391 kinases (Homo sapiens, UniProt Q9P0L2); settings: MARK1, MK-28 1 µM, ATP 1 µM
# panel of 391 kinases [24] = target: panel of 391 kinases (Homo sapiens, UniProt Q9UEW8); settings: STK39/STLK3, MK-28 1 µM, ATP 1 µM
# panel of 391 kinases [25] = target: panel of 391 kinases (Homo sapiens, UniProt Q9UK32); settings: RSK4, MK-28 1 µM, ATP 1 µM
# panel of 391 kinases [26] = target: panel of 391 kinases (Homo sapiens, UniProt Q9Y463); settings: DYRK1B, MK-28 1 µM, ATP 1 µM
# [27] = read-out: % Enzyme Activity (relative to DMSO controls)
structure (smiles),measurement,setting,value
CN(/N=C\c1ccc(O)c(O)c1)c1nc(-c2ccccc2)cc(-c2ccccc2)n1 [MK-28],% Enzyme Activity (relative to DMSO controls),panel of 391 kinases [1],95.79%
same,remaining activity at 1 µM,panel of 391 kinases [1]; [27],99.1%
same,% Enzyme Activity (relative to DMSO controls),panel of 391 kinases [2],97.92%
same,remaining activity at 1 µM,panel of 391 kinases [2]; [27],98.4%
same,% Enzyme Activity (relative to DMSO controls),panel of 391 kinases [3],103.85%
same,remaining activity at 1 µM,panel of 391 kinases [3]; [27],105%
same,% Enzyme Activity (relative to DMSO controls),panel of 391 kinases [4],93.67%
same,remaining activity at 1 µM,panel of 391 kinases [4]; [27],93.8%
same,% Enzyme Activity (relative to DMSO controls),panel of 391 kinases [5]; CDK4/cyclin D1,95.51%
same,remaining activity at 1 µM,panel of 391 kinases [5]; CDK4/cyclin D1,95.6%
same,% Enzyme Activity (relative to DMSO controls),panel of 391 kinases [5]; CDK4/cyclin D3,98.69%
same,remaining activity at 1 µM,panel of 391 kinases [5]; CDK4/cyclin D3,100%
same,% Enzyme Activity (relative to DMSO controls),panel of 391 kinases [6],95.93%
same,remaining activity at 1 µM,panel of 391 kinases [6]; [27],96.2%
same,% Enzyme Activity (relative to DMSO controls),panel of 391 kinases [7],91.97%
same,remaining activity at 1 µM,panel of 391 kinases [7]; [27],93%
same,% Enzyme Activity (relative to DMSO controls),panel of 391 kinases [8],103.07%
same,remaining activity at 1 µM,panel of 391 kinases [8]; [27],103%
same,% Enzyme Activity (relative to DMSO controls),panel of 391 kinases [9],99.70%
same,remaining activity at 1 µM,panel of 391 kinases [9]; [27],101%
same,% Enzyme Activity (relative to DMSO controls),panel of 391 kinases [10],90.72%
same,remaining activity at 1 µM,panel of 391 kinases [10]; [27],91.3%
same,% Enzyme Activity (relative to DMSO controls),panel of 391 kinases [11],89.88%
same,remaining activity at 1 µM,panel of 391 kinases [11]; [27],92.3%
same,% Enzyme Activity (relative to DMSO controls),panel of 391 kinases [12],96.61%
same,remaining activity at 1 µM,panel of 391 kinases [12]; [27],97.7%
same,% Enzyme Activity (relative to DMSO controls),panel of 391 kinases [13],98.63%
same,remaining activity at 1 µM,panel of 391 kinases [13]; [27],99.6%
same,% Enzyme Activity (relative to DMSO controls),panel of 391 kinases [14],95.42%
same,remaining activity at 1 µM,panel of 391 kinases [14]; [27],99.5%
same,% Enzyme Activity (relative to DMSO controls),panel of 391 kinases [15],103.52%
same,remaining activity at 1 µM,panel of 391 kinases [15]; [27],108%
same,% Enzyme Activity (relative to DMSO controls),panel of 391 kinases [16]; CDK6/cyclin D1,98.75%
same,remaining activity at 1 µM,panel of 391 kinases [16]; CDK6/cyclin D1,102%
same,% Enzyme Activity (relative to DMSO controls),panel of 391 kinases [16]; CDK6/cyclin D3,86.79%
same,remaining activity at 1 µM,panel of 391 kinases [16]; CDK6/cyclin D3,87.6%
same,% Enzyme Activity (relative to DMSO controls),panel of 391 kinases [17],97.74%
same,remaining activity at 1 µM,panel of 391 kinases [17]; [27],98.5%
same,% Enzyme Activity (relative to DMSO controls),panel of 391 kinases [18],94.86%
same,remaining activity at 1 µM,panel of 391 kinases [18]; [27],99.6%
same,% Enzyme Activity (relative to DMSO controls),panel of 391 kinases [19],94.26%
same,remaining activity at 1 µM,panel of 391 kinases [19]; [27],95.3%
same,% Enzyme Activity (relative to DMSO controls),panel of 391 kinases [20],103.40%
same,remaining activity at 1 µM,panel of 391 kinases [20]; [27],105%
same,% Enzyme Activity (relative to DMSO controls),panel of 391 kinases [21],99.36%
same,remaining activity at 1 µM,panel of 391 kinases [21]; [27],100%
same,% Enzyme Activity (relative to DMSO controls),panel of 391 kinases [22],90.54%
same,remaining activity at 1 µM,panel of 391 kinases [22]; [27],93.3%
same,% Enzyme Activity (relative to DMSO controls),panel of 391 kinases [23],94.22%
same,remaining activity at 1 µM,panel of 391 kinases [23]; [27],94.5%
same,% Enzyme Activity (relative to DMSO controls),panel of 391 kinases [24],106.05%
same,remaining activity at 1 µM,panel of 391 kinases [24]; [27],108%
same,% Enzyme Activity (relative to DMSO controls),panel of 391 kinases [25],101.39%
same,remaining activity at 1 µM,panel of 391 kinases [25]; [27],102%
same,% Enzyme Activity (relative to DMSO controls),panel of 391 kinases [26],88.09%
same,remaining activity at 1 µM,panel of 391 kinases [26]; [27],89.9%
